From ChEMBL document CHEMBL5370532, “Selective Estrogen receptor degraders (SERDs) for the treatment of breast cancer: An overview” (Eur J Med Chem, 2023) come the findings set out here.

In general, IC50 refers to the point on the concentration scale where inhibition reaches its midpoint. A word on the Cmax: it is the maximum level reached in the sampled fluid or tissue. For orientation: AUC(0-inf) means total exposure, with the tail of the curve extrapolated. A higher AUC(0-inf) goes with high exposure. Usually half-life stands for the time in which the quantity being followed falls by half. Read a high half-life as slow decline.

Molecules are shown by their SMILES.

Data set [1] concerns MCF7. Description: Antiproliferative activity against 17beta-estradiol stimulated human MCF7 cells assessed as inhibition of cell growth incubated for 5 to 7 days by fluorescence based assay. The data set is classed as functional.
The next data set has as its system Ishikawa. Description: Antiproliferative activity against human Ishikawa cells assessed as inhibition of cell growth incubated for 48 hrs by MTT assay. The data set is classed as functional, cell-based. A general note: Tetrazolium dyes change colour on reduction, which living cells bring about.
Data set [2] deals with MCF7. As to the kind of experiment: Antiproliferative activity against human MCF7 cells assessed as inhibition of cell growth incubated for 48 hrs by MTT assay. It is filed as functional, cell-based. The conditions noted are these: MCF7, 48 h.
Data set [3] has as its system MCF7. As to the kind of experiment: Antiproliferative activity against human MCF7 cells assessed as inhibition of cell growth incubated for 48 hrs by CCK-8 assay. It is filed as functional, cell-based. Particulars: MCF7, 48 h.
Another data set addresses Estrogen receptor beta (Homo sapiens, UniProt Q92731). Description: Inhibition of ERbeta (unknown origin) incubated for 4 hrs by fluorescence polarization assay. On the technique in general: In fluorescence polarisation assays a small probe gives low polarisation when free and higher when bound to something large.
Data set [4] in a line: Downregulation of ER expression in human MCF7 cells incubated for 48 hrs by ELISA. The conditions noted are these: MCF7, 48 h. The data set is classed as functional, cell-based. For orientation: ELISA stands for enzyme-linked immunosorbent assay.
A short description of data set [5]: In vivo antagonist activity against E2-mediated uterine stimulation in Sprague-Dawley rat administered orally or subcutaneously once daily for 3 days. It is filed as functional, organism-based.
The nature of data set [6]: Cmax in Sprague-Dawley rat at 10 mg/kg, po via gavage for 2 hrs by UHPLC analysis. The data set is classed as ADME, organism-based. Further details: dose 10 mg/kg, time 2 hrs, route po. Particulars: in vivo.
The nature of data set [7]: Observed AUC (0 to infinity) in Sprague-Dawley rat at 10 mg/kg, po via gavage for 2 hrs by UHPLC analysis. It is filed as ADME, organism-based. Further details: dose 10 mg/kg, time 2 hrs, route po. Particulars: in vivo.
Data set [8] can be described thus: Half life in Sprague-Dawley rat at 10 mg/kg, po via gavage for 2 hrs by UHPLC analysis. The data set is classed as ADME, organism-based. The conditions noted are these: in vivo.

Estrogen receptor beta, sequence (Q92731 whole entry): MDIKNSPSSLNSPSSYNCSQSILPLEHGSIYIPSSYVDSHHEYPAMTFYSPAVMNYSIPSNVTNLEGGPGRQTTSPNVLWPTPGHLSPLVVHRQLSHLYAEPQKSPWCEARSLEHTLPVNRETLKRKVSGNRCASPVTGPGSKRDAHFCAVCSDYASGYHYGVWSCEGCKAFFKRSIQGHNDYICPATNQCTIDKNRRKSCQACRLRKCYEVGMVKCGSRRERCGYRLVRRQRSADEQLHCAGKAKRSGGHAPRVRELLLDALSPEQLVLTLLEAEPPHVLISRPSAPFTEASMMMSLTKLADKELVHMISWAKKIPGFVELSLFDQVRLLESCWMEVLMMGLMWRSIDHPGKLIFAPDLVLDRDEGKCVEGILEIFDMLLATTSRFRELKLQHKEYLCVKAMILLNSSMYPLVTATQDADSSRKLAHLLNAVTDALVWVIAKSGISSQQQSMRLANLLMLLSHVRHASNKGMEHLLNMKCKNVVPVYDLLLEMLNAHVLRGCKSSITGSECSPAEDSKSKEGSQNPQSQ

Take `CC1=C(c2ccc(O)cc2)[C@H](c2ccc(OCCN3CC[C@@H](C)C3)cc2)Oc2cc(O)ccc21`: in the data set on MCF7 [1], the IC50 was 7.2 nM.

`O=C(/C=C\c1ccc(-c2nc(-c3ccc(O)cc3)nc(-c3ccc(O)cc3)n2)cc1)NCCCO`: the IC50 with Ishikawa was 3110 nM; in the data set on MCF7 [2] it was 3150 nM.

Take `COc1ccc(C(=O)C2=C(Oc3ccc(/C=C/C(=O)O)cc3)c3ccc(O)cc3OC2)cc1`: the IC50 in the data set on MCF7 [3] worked out at 800 nM.

In the case of `CCNCCc1ccc(CN(CC)c2cc(OC)ccc2[C@@H]2CCc3cc(O)ccc3C2)cc1` [ELACESTRANT], on Estrogen receptor beta, the IC50 was 870 nM. The figures for the EC50 in data set [4] and in [5] were 0.6 nM and 0.3 mg/kg, respectively.

`C[C@]12CC[C@@H]3c4ccc(B(O)O)cc4C[C@@H](CCCCCCCCC[S+]([O-])CCCC(F)(F)C(F)(F)F)[C@H]3[C@@H]1CC[C@@H]2O` (stereo not given in full) [ZB-716] gave a Cmax in data set [6] of 158 ng/mL. Also, the total exposure AUC(0-inf) in data set [7] came out at 1450 ng·h/mL. The compound also showed a half-life in data set [8] of 17 h.
